Experimental findings from US20240059691A1 (KALVISTA PHARMACEUTICALS LIMITED, priority 2020, published 2024) are described below.

One data set has as its target Human Factor XIIa (Homo sapiens (Human), UniProt P00748). The data set can be described thus: Determination of FXIIa inhibition (fluorogenic substrate H-DPro-Phe-Arg-AFC, IC50 assay). Particulars: substrate H-DPro-Phe-Arg-AFC at Km, 25° C.; class scale A-G. In kind it is biochemical. Summed up: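 IC50 derived from % remaining activity, taken as the linear fluorescence rate over a 5 min read at 25° C. Substrate H-DPro-Phe-Arg-AFC was used at its Km (Michaelis-Menten) with human FXIIa and serial compound dilutions, 25° C.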

The target in the next data set is Plasma Kallikrein (Homo sapiens (Human), UniProt P03952). Nature of the data set: Determination of related protease inhibition: Plasma Kallikrein (fluorogenic substrate at Km). Type of data set: biochemical. Particulars: 25° C., read-out: IC50 (human PKal). Summed up: (§1)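 Fluorescence release from a Km-level fluorogenic substrate, read for 5 min at 25 °C, gave the linear rate per minute for each inhibitor concentration. Rates were converted to % of uninhibited human enzyme activity; IC50 = inhibitor concentration producing 50% inhibition.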

The target of the next data set is KLK1 (Homo sapiens (Human), UniProt P06870). The data set can be described thus: Determination of related protease inhibition: KLK1 (fluorogenic substrate at Km). In kind it is biochemical. The following applies: 25° C. Put shortly: as §1
A further data set concerns the target FXa (Homo sapiens (Human), UniProt P00742). Nature of the data set: Determination of related protease inhibition: FXa (fluorogenic substrate at Km). Particulars: 25° C. In kind it is biochemical. Put shortly: as §1
In a further data set the target is Plasmin (Homo sapiens (Human), UniProt P00747). Nature of the data set: Determination of related protease inhibition: Plasmin (fluorogenic substrate at Km). In kind it is biochemical. Particulars: 25° C. The method, then:
(§2) Determination of Related Protease Inhibition
(§3) In vitro inhibition of related proteases was determined using an ([…] assay based on standard literature methods (see e.g. Shori et al., Biochem. Pharmacol., 1992, 43, 1209; Bouckaert et al., European Journal of Medicinal Chemistry 110 (2016) 181). Human serine protease enzymes Plasma Kallikrein, KLK1, FXa, Plasmin, Thrombin and Trypsin were assayed for enzymatic activity using an appropriate fluorogenic substrate at Km concentration, FXIa at fixed substrate concentration of 100 μM, and various concentrations of the test compound. Protease activity was measured by monitoring the accumulation of liberated fluorescence from the substrate over […]. The linear rate of fluorescence increase per minute was expressed as percentage (%) activity. IC50 values were calculated as the concentration of inhibitor giving 50% inhibition of the uninhibited enzyme activity (100%).

The target in the next data set is Thrombin (Homo sapiens (Human), UniProt P00734). Nature of the data set: Determination of related protease inhibition: Thrombin (fluorogenic substrate at Km). In kind it is biochemical. Particulars: 25° C. Put shortly: as §1
In another data set the target is Trypsin. The data set can be described thus: Determination of related protease inhibition: Trypsin (fluorogenic substrate at Km). In kind it is biochemical, human. The following applies: 25° C. The method, then: as §2, §3
For the next data set, the target named is FXIa (Homo sapiens (Human), UniProt P03951). The data set can be described thus: Determination of related protease inhibition: FXIa (fixed substrate concentration of 100 μM). Particulars: 25° C. Type of data set: biochemical.
A short description of data set [1]: Pharmacokinetics following a single intravenous dose and a single oral dose in male Sprague-Dawley rats (oral bioavailability, half-life). In kind it is in vivo. The following applies: rat, plasma, 10% DMSO/10% Cremophor EL/80% SWFI; for bioavailability: read-out: F % (oral bioavailability). The method, then: Pharmacokinetic studies of the compounds in Table 16 were performed to assess the pharmacokinetics following a single intravenous dose and a single oral dose in male Sprague-Dawley rats. Two rats were given a single intravenous dose of 1 mL/kg of a nominal 1 mg/mL (1 mg/kg) composition of test compound in 10% DMSO/10% Cremophor EL/80% SWFI vehicle. Example 2191 was dosed at 1 mL/kg of a nominal 2 mg/mL (2 mg/kg) using the same vehicle.
Two rats were given a single oral dose of 5 mL/kg of a nominal 1 mg/mL (5 mg/kg) composition of test compound in 10% DMSO/10% Cremophor EL/80% SWFI vehicle. Example 2191 was dosed at 5 mL/kg of a nominal 2 mg/mL (10 mg/kg) using the same vehicle.
Following intravenous dosing, blood samples were collected over a period of 12 h. Sample times were 2, 5, 15 and 30 min then 1, 2, 4, 6, and 12 h. Following oral dosing, blood samples were collected over a period of 24 h. Sample times were 5, 15 and 30 min then 1, 2, 4, 6, 8, 12 and 24 h.
Following collection, blood samples were centrifuged and the plasma fraction analysed for concentration of test compound by LCMS. Oral bioavailability and half-life calculations from these studies were obtained using Phoenix WinNonlin (v8.0) and are shown below: […]

SMILES strings stand for the structures.

Sequence of Human Factor XIIa (P00748 373-615): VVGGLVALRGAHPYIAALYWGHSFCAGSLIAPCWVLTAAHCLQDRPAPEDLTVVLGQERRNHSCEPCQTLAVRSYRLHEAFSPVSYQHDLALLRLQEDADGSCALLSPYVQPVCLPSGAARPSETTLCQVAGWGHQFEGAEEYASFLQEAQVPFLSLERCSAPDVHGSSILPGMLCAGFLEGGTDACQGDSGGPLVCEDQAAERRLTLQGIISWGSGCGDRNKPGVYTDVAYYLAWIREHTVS
Sequence of Plasma Kallikrein (P03952 391-638): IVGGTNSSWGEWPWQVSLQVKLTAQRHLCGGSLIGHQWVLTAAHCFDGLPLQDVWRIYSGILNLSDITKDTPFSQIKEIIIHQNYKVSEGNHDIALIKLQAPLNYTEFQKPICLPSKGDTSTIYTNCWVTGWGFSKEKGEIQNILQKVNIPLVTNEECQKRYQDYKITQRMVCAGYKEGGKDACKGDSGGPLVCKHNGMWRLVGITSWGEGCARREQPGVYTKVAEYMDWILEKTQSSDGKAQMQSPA
Sequence of Plasma Kallikrein (P03952 20-390 partner): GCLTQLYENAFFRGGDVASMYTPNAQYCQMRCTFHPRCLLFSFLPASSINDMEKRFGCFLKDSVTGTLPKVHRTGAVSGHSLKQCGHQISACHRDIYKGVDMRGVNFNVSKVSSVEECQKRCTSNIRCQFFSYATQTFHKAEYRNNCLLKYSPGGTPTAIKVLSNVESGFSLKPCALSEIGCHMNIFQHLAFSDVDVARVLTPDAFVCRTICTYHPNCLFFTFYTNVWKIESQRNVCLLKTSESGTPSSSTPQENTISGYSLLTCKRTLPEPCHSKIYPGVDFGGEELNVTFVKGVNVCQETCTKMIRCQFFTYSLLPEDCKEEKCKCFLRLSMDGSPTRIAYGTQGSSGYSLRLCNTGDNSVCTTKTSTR
Sequence of FXIa (P03951 388-625): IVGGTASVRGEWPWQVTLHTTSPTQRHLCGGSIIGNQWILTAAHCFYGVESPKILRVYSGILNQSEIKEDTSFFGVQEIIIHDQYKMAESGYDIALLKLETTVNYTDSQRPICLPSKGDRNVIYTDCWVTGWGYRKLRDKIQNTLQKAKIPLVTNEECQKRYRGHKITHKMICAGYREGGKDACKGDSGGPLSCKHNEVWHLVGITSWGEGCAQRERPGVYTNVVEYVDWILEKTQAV
Sequence of FXIa (P03951 19-387 partner): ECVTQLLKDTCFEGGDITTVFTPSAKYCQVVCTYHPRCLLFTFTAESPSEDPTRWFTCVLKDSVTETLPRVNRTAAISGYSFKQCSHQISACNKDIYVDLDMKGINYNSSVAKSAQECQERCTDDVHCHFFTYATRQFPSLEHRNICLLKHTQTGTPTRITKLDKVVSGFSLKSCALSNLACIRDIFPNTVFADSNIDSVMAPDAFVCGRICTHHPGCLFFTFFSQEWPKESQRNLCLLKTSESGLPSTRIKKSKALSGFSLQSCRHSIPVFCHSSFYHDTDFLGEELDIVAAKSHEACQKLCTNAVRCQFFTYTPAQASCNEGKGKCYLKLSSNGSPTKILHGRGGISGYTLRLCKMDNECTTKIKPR
Sequence of KLK1 (P06870 25-262): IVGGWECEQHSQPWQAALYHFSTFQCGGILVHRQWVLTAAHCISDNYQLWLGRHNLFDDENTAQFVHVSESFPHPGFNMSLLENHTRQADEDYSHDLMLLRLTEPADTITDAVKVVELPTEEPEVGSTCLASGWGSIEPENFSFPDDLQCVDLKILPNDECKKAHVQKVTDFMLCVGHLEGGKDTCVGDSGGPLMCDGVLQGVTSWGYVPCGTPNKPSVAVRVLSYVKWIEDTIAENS
Sequence of Plasmin (P00747 581-810): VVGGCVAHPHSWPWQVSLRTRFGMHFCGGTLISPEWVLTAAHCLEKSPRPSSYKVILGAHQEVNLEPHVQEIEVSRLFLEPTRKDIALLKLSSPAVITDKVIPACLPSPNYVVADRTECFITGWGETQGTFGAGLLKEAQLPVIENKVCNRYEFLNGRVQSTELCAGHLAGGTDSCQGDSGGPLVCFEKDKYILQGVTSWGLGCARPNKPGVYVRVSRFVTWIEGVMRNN
Sequence of Plasmin (P00747 97-580 partner): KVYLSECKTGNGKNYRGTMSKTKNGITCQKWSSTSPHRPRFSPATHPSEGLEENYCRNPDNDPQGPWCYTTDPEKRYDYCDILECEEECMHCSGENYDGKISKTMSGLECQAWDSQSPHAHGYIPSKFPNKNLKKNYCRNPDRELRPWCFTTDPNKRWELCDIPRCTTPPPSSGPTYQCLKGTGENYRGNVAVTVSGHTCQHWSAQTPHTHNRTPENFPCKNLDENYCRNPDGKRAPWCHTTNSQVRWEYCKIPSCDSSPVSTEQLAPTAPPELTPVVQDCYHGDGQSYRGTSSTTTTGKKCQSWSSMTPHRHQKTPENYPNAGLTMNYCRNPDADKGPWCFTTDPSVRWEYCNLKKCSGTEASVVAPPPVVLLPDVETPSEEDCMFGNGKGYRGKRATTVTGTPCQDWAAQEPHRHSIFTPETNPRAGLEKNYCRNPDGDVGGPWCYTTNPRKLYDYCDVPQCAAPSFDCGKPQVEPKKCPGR
Sequence of FXa (P00742 235-488): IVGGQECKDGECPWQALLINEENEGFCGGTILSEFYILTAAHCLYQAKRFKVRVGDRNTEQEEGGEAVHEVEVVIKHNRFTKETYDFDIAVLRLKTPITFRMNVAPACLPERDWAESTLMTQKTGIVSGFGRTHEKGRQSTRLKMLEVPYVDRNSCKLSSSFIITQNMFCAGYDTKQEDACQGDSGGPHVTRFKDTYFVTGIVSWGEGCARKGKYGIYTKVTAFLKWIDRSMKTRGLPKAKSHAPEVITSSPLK
Sequence of FXa (P00742 41-179 partner): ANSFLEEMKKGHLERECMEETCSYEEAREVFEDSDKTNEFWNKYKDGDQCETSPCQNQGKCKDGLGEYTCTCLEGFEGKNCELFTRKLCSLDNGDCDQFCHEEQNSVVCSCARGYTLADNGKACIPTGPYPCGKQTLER

As a reminder, the IC50 is the concentration needed to halve the response being measured. For the compound `Nc1ncc(Cl)c2cc(NCc3ccnc(OCC4CCn5ccnc5C4)c3)ccc12` (single isomer, unassigned) [Example 4438, (S*)-4-chloro-N6-((2-((5,6,7,8-tetrahydroimidazo[1,2-a]pyridin-7-yl)methoxy)pyridin-4-yl)methyl)isoquinoline-1,6-diamine], the concentration for half-maximal inhibition (IC50) is 0.1 to 0.3 µM against Human Factor XIIa; 10 to 40 µM at Plasma Kallikrein; 3 to 10 µM against KLK1; 10 to 40 µM at FXa; more than 40 µM against Plasmin; 10 to 40 µM on Thrombin. The IC50 against Trypsin and against FXIa was more than 40 µM each time.
As for `Cc1cn2c(n1)CC(COc1cc(CNc3cccc4c(N)nccc34)ccn1)CC2` (single isomer, unassigned) [Example 4446, (S*)-N5-((2-((2-methyl-5,6,7,8-tetrahydroimidazo[1,2-a]pyridin-7-yl)methoxy)pyridin-4-yl)methyl)isoquinoline-1,5-diamine], the IC50 was 0.01 to 0.1 µM on Human Factor XIIa; 3 to 10 µM on Plasma Kallikrein; 3 to 10 µM at KLK1; 3 to 10 µM against FXa; more than 40 µM at Plasmin; more than 40 µM against Thrombin. The IC50 at Trypsin and against FXIa was 10 to 40 µM throughout.
One may read the half-life as the time needed for the level to fall by half in the phase considered. A high value points to slow decline. As a reminder, the bioavailability is dose-corrected exposure relative to a reference, in per cent. Consider `CC(C)N1C[C@@H]2C[C@H]1CN2CCc1ccc(CNc2cccc3c(N)nccc23)c(F)c1` (stereo in doubt) [Example 2212, N5-[[2-fluoro-4-[2-[(1S,4S)-5-isopropyl-2,5-diazabicyclo[2.2.1]heptan-2-yl]ethyl]phenyl]methyl]isoquinoline-1,5-diamine], for which the IC50 is 0.1 to 0.3 µM against Human Factor XIIa; 3 to 10 µM on Plasma Kallikrein; 10 to 40 µM against KLK1; more than 40 µM against FXa; more than 40 µM at Plasmin; more than 40 µM on Thrombin. Also, the concentration for half-maximal inhibition (IC50) against Trypsin and against FXIa was more than 40 µM each time. In [1], this compound yielded a half-life of 4.34 h. Besides, in [1], the bioavailability worked out at 6.8%.
Turning to `Nc1nccc2c(NCc3ccc(N4CCn5ccnc5C4)nc3)cccc12` [Example 1128, 5-N-[(6-{5H,6H,8H-imidazo[1,2-a]piperazin-7-yl}pyridin-3-yl)methyl]isoquinoline-1,5-diamine], the IC50 on Human Factor XIIa is 0.3 to 1 µM; on Plasma Kallikrein, more than 40 µM; against KLK1 it was 3 to 10 µM; against FXa, more than 40 µM; on Plasmin, more than 40 µM; on Thrombin, 10 to 40 µM. The 50% inhibitory concentration (IC50) at Trypsin and against FXIa was more than 40 µM each time.
In the case of `CN1CCC(CNc2ccc(CNc3ccnc4[nH]ccc34)cn2)CC1` [Example 1197, N-((6-(((1-methylpiperidin-4-yl)methyl)amino)pyridin-3-yl)methyl)-1H-pyrrolo[2,3-b]pyridin-4-amine], the IC50 against Human Factor XIIa was 1 to 3 µM; on Plasma Kallikrein, more than 40 µM; on KLK1, more than 40 µM; at FXa it was more than 40 µM; at Plasmin, more than 40 µM; at Thrombin it was more than 40 µM. Also, the IC50 on Trypsin and against FXIa was more than 40 µM throughout.
`CN1CCC(COc2cc(CNc3ccc4cnccc4c3)ccn2)CC1` [Example 4262, N-({2-[(1-methylpiperidin-4-yl)methoxy]pyridin-4-yl}methyl)isoquinolin-6-amine]: the concentration for half-maximal inhibition (IC50) at Human Factor XIIa is 3 to 10 µM; on Plasma Kallikrein, 10 to 40 µM; against KLK1, 10 to 40 µM; at FXa it was 10 to 40 µM; on Plasmin, more than 40 µM; at Thrombin it was more than 40 µM. Besides, the IC50 at Trypsin and against FXIa was more than 40 µM in each case.
As for `CN1CCC(COc2cc(CNc3ccc4c(N)ncc(Cl)c4c3)ccn2)CC1` [Example 4268, 4-Chloro-N6-((2-((1-methylpiperidin-4-yl)methoxy)pyridin-4-yl)methyl)isoquinoline-1,6-diamine], the IC50 was 0.01 to 0.1 µM against Human Factor XIIa; 10 to 40 µM at Plasma Kallikrein; 1 to 3 µM against KLK1; 3 to 10 µM at FXa; more than 40 µM against Plasmin; more than 40 µM against Thrombin. For the same compound, the IC50 against Trypsin and against FXIa was more than 40 µM each time. For the same compound, in [1], the half-life worked out at 12.4 h. For the same compound, the bioavailability in data set [1] is 3%.
Regarding `CN1CCC(COc2cc(CNc3cc4ccnc(N)c4cn3)ccn2)CC1` [Example 4271, 6-N-({2-[(1-methylpiperidin-4-yl)methoxy]pyridin-4-yl}methyl)-2,7-naphthyridine-1,6-diamine], the IC50 against Human Factor XIIa is 1 to 3 µM; at Plasma Kallikrein, 10 to 40 µM; at KLK1, 10 to 40 µM; at FXa it was 0.3 to 1 µM; at Plasmin it was more than 40 µM; against Thrombin, 10 to 40 µM. For the same compound, the half-inhibitory concentration (IC50) at Trypsin and on FXIa was more than 40 µM each time.
On to `Nc1ncc(F)c2c(NCc3ccnc(OCC4CCn5ccnc5C4)c3)cccc12` (stereo not shown) [Example 4308, 4-fluoro-5-N-[(2-{5H,6H,7H,8H-imidazo[1,2-a]pyridin-7-ylmethoxy}pyridin-4-yl)methyl]isoquinoline-1,5-diamine], for which the IC50 against Human Factor XIIa was 3 to 10 µM; on Plasma Kallikrein, more than 40 µM; on KLK1, 10 to 40 µM; against FXa, more than 40 µM; against Plasmin it was more than 40 µM; on Thrombin, more than 40 µM. Also, the IC50 at Trypsin and on FXIa was more than 40 µM throughout.
`Nc1ncc(Cl)c2cc(NCc3ccnc(N4CCn5ccnc5C4)c3)ccc12` [Example 4437, 4-chloro-6-N-[(2-{5H,6H,8H-imidazo[1,2-a]pyrazin-7-yl}pyridin-4-yl)methyl]isoquinoline-1,6-diamine]: the IC50 was 0.1 to 0.3 µM against Human Factor XIIa; more than 40 µM at Plasma Kallikrein; 3 to 10 µM against KLK1; 3 to 10 µM against FXa; more than 40 µM on Plasmin; 10 to 40 µM against Thrombin. Besides, the IC50 at Trypsin and on FXIa was more than 40 µM throughout.
With `CN1CCC(COc2cc(CNc3cccc4[nH]nc(Cl)c34)ccn2)CC1` [Example 4454, 3-chloro-N-((2-((1-methylpiperidin-4-yl)methoxy)pyridin-4-yl)methyl)-1H-indazol-4-amine], the IC50 on Plasma Kallikrein is more than 100 µM; on KLK1 it was 1 to 3 µM; at FXa, more than 40 µM; at Plasmin, more than 40 µM; against Thrombin it was more than 40 µM; at Trypsin, more than 40 µM. For the same compound, on FXIa, the IC50 was more than 40 µM.
